In publication PMC6009907, “Synthesis, characterization and in vitro inhibition of metal complexes of pyrazole based sulfonamide on human erythrocyte carbonic anhydrase isozymes I and II” (Journal of Enzyme Inhibition and Medicinal Chemistry, 2017):

What was measured:
Format in all cases: biochemical
hCA-II [1] = target: T1, hCA-II (Homo sapiens, UniProt P00918); assay: Determination of Ki values (esterase activity, Lineweaver–Burk), hCA-II; conditions: five substrate concentrations, Lineweaver–Burk plot
T1 construct: Purification of isoenzymes hCA-I and hCA-II from human erythrocytes; from tissue; host or cells: human erythrocytes (blood)
Protocol: (§1) In order to purify hCA-I and hCA-II isoenzymes, first, human blood was centrifuged at 1500 rpm for 20 min, and after the removal of the plasma, the erythrocytes were washed with an isotonic solution (0.9% NaCl). After that, the erythrocytes were lysed with 1.5 volume of ice-cold water. The lysate was centrifuged at 20 000 rpm for 30 min to remove cell membranes and non-lysed cells. […] After extensive washing with 25 mM tris–HCl/22 mM Na2SO4 (pH 8.7), the hCA-I and hCA-II isoenzymes were eluted with 1.0 M NaCl/25 mM Na2HPO4 (pH 6.3) and 0.1 M CH3COONa/0.5 M NaClO4 (pH 5.6).[45]^,[46] The amount of purified protein was estimated by the Bradford method[47] and SDS-PAGE was carried out to determine whether the elute containing the enzyme[48] (Supplemental Figure 1).
(§2) The method for determination of Ki values is described elsewhere.[52–56] […] Regression analysis graphs were drawn by plotting inhibitor concentrations versus enzyme activity by using Microsoft Excel Program.

hCA-II [2] = target: T1, hCA-II; assay: CO2-hydratase activity assay (Wilbur and Anderson), hCA-II; conditions: hCA-II purified from human erythrocytes; CO2 hydration
Protocol: as §1
(§3) Carbonic anhydrase activity was assayed by following the hydration of CO2 according to the method described by Wilbur and Anderson.[49] CO2-hydratase activity as an enzyme unit (EU) was calculated by using the equation ((t0−tc)/tc) where t0 and tc are the times for pH change of the nonenzymatic and the enzymatic reactions, respectively.

hCA-I [3] = target: T2, hCA-I (Homo sapiens, UniProt P00915); assay: Determination of Ki values (esterase activity, Lineweaver–Burk), hCA-I; conditions: five substrate concentrations, Lineweaver–Burk plot
T2 construct: Purification of isoenzymes hCA-I and hCA-II from human erythrocytes; from tissue; host or cells: human erythrocytes (blood)
T2 sequence (P00915 whole entry): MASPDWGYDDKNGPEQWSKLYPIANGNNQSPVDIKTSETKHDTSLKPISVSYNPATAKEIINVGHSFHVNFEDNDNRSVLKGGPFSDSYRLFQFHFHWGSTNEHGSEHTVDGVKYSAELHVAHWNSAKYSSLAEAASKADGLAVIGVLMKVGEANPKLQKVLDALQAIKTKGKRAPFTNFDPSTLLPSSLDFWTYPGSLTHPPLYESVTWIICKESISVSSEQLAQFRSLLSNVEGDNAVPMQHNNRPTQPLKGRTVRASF
Protocol: as §1, §2

hCA-I [4] = target: T2, hCA-I; assay: CO2-hydratase activity assay (Wilbur and Anderson), hCA-I; conditions: hCA-I purified from human erythrocytes; CO2 hydration
Protocol: as §1, §3

hCA-I [5] = target: T2, hCA-I; assay: Esterase activity assay (4-nitrophenylacetate, 348 nm), hCA-I; conditions: hCA-I purified from human erythrocytes, 25 °C, pH 7.4
Protocol: as §1
(§4) The enzymatic reaction, in a total volume of 3.0 mL, contained 1.4 mL of 0.05 M tris–SO4 buffer (pH 7.4), 1 mL of 3 mM 4-nitrophenylacetate, 0.5 mL H2O and 0.1 mL enzyme solution. A reference measurement was obtained by preparing the same cuvette without enzyme solution.
as §2

hCA-II [6] = target: T1, hCA-II; assay: Esterase activity assay (4-nitrophenylacetate, 348 nm), hCA-II; conditions: hCA-II purified from human erythrocytes, 25 °C, pH 7.4
Protocol: as §1, §4, §2

Ki (hCA-II [1]): 5300 nM
IC50 (hCA-II [2]): 900 nM
Ki (hCA-I [3]): 1100 nM
IC50 (hCA-I [4]): 1400 nM
IC50 (hCA-I [5]): 2800 nM
IC50 (hCA-II [6]): 5600 nM
SMILES: CCOC(=O)c1c(C(=O)Nc2nnc(S(N)(=O)=O)s2)nn(-c2cccc([N+](=O)[O-])c2)c1-c1ccccc1 [compound 1, ethyl 1-(3-nitrophenyl)-5-phenyl-3-((5-sulfamoyl-1,3,4-thiadiazol-2-yl)carbamoyl)-1H-pyrazole-4-carboxylate]
